From the supplement of paper PMC10307832

Key:
Experiment in all cases: relative viability (nuclei count vs DMSO), 5 days (fraction); higher = more cells survive
[1] = system: LU99A
Summary of the method: (§1)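 Relative viability divides the nuclei count in treated wells by that in vehicle wells. Lung cancer cell lines were seeded in 1536-well plates, dosed by pin tool the next day, and fixed and stained after 5 days in one step with final 0.05% Triton X-100, 1% formaldehyde and 1 ug/ml Hoechst. Dosing was a single drug or a fixed anchor-drug dose plus five library-drug doses (not always all listed) in √10 steps, and values are medians of duplicate plates imaged at 4×.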

[2] = system: NCI-H1355
Summary of the method: as §1

[3] = system: EPLC-272H
Summary of the method: as §1

[4] = system: HCC-827
Summary of the method: as §1

[5] = system: UMC-11
Summary of the method: as §1

[6] = system: PC-3 [JPC-3]
Summary of the method: as §1

[7] = system: LK-2
Summary of the method: as §1

[8] = system: SW 1573
Summary of the method: as §1

[9] = system: H3255
Summary of the method: as §1

[10] = system: SK-LU-1
Summary of the method: as §1

[11] = system: NCI-H441
Summary of the method: as §1

[12] = system: NCI-H2405
Summary of the method: as §1

[13] = system: LXF-289
Summary of the method: as §1

[14] = system: NCI-H2228
Summary of the method: as §1

[15] = system: NCI-H1993
Summary of the method: as §1

[16] = system: LCLC-97TM1
Summary of the method: as §1

[17] = system: HOP-62
Summary of the method: as §1

[18] = system: NCI-H2170
Summary of the method: as §1

[19] = system: EKVX
Summary of the method: as §1

[20] = system: NCI-H3122
Summary of the method: as §1

## Nc1cccc2c1CN(C1CCC(=O)NC1=O)C2=O (configuration not stated) [Lenalidomide] + Cc1nc(NC(=O)N2CCC[C@H]2C(N)=O)sc1-c1ccnc(C(C)(C)C(F)(F)F)c1 [Alpelisib] (partner 2 µM)
[1]; first compound 0.253 µM
  relative viability: 0.47
[1]; first compound 0.8 µM
  relative viability: 0.501
[1]; first compound 2.53 µM
  relative viability: 0.501
[1]; first compound 8 µM
  relative viability: 0.317
[2]; first compound 0.253 µM
  relative viability: 0.806
[2]; first compound 0.8 µM
  relative viability: 0.645
[2]; first compound 2.53 µM
  relative viability: 0.848
[2]; first compound 8 µM
  relative viability: 0.454
[3]; first compound 0.253 µM
  relative viability: 0.975
[3]; first compound 2.53 µM
  relative viability: 1.03
[3]; first compound 8 µM
  relative viability: 0.684
[4]; first compound 0.253 µM
  relative viability: 0.978
[4]; first compound 0.8 µM
  relative viability: 1.06
[4]; first compound 2.53 µM
  relative viability: 0.96
[4]; first compound 8 µM
  relative viability: 0.846
[5]; first compound 0.253 µM
  relative viability: 1.05
[5]; first compound 0.8 µM
  relative viability: 0.961
[5]; first compound 2.53 µM
  relative viability: 1.03
[5]; first compound 8 µM
  relative viability: 0.958
[6]; first compound 0.253 µM
  relative viability: 0.992
[6]; first compound 0.8 µM
  relative viability: 0.981
[6]; first compound 2.53 µM
  relative viability: 1.09
[6]; first compound 8 µM
  relative viability: 1.05
[7]; first compound 0.253 µM
  relative viability: 1.11
[7]; first compound 2.53 µM
  relative viability: 1.09
[7]; first compound 8 µM
  relative viability: 1.03
[8]; first compound 0.253 µM
  relative viability: 0.775
[8]; first compound 0.8 µM
  relative viability: 0.921
[8]; first compound 2.53 µM
  relative viability: 1.01
[8]; first compound 8 µM
  relative viability: 0.696
[9]; first compound 0.253 µM
  relative viability: 0.664
[9]; first compound 0.8 µM
  relative viability: 0.682
[9]; first compound 2.53 µM
  relative viability: 0.916
[9]; first compound 8 µM
  relative viability: 0.584
[10]; first compound 0.253 µM
  relative viability: 0.913
[10]; first compound 0.8 µM
  relative viability: 0.999
[10]; first compound 2.53 µM
  relative viability: 1.29
[10]; first compound 8 µM
  relative viability: 1.07
[11]; first compound 0.253 µM
  relative viability: 0.74
[11]; first compound 0.8 µM
  relative viability: 0.663
[11]; first compound 2.53 µM
  relative viability: 0.917
[11]; first compound 8 µM
  relative viability: 0.775
[12]; first compound 0.253 µM
  relative viability: 0.672
[12]; first compound 0.8 µM
  relative viability: 0.83
[12]; first compound 2.53 µM
  relative viability: 0.843
[12]; first compound 8 µM
  relative viability: 0.563
[13]; first compound 0.253 µM
  relative viability: 1.05
[13]; first compound 0.8 µM
  relative viability: 1.05
[13]; first compound 2.53 µM
  relative viability: 1.11
[13]; first compound 8 µM
  relative viability: 1.08
[14]; first compound 0.253 µM
  relative viability: 0.851
[14]; first compound 0.8 µM
  relative viability: 0.736
[14]; first compound 2.53 µM
  relative viability: 0.785
[14]; first compound 8 µM
  relative viability: 0.817
[15]; first compound 0.253 µM
  relative viability: 0.744
[15]; first compound 0.8 µM
  relative viability: 0.734
[15]; first compound 2.53 µM
  relative viability: 0.683
[15]; first compound 8 µM
  relative viability: 0.713
[16]; first compound 0.8 µM
  relative viability: 0.236
[16]; first compound 2.53 µM
  relative viability: 0.308
[16]; first compound 8 µM
  relative viability: 0.164
[17]; first compound 0.253 µM
  relative viability: 0.983
[17]; first compound 0.8 µM
  relative viability: 1.08
[17]; first compound 2.53 µM
  relative viability: 0.984
[17]; first compound 8 µM
  relative viability: 0.828
[18]; first compound 0.253 µM
  relative viability: 0.881
[18]; first compound 0.8 µM
  relative viability: 0.781
[18]; first compound 2.53 µM
  relative viability: 0.84
[18]; first compound 8 µM
  relative viability: 0.755
[19]; first compound 0.253 µM
  relative viability: 0.803
[19]; first compound 0.8 µM
  relative viability: 0.95
[19]; first compound 2.53 µM
  relative viability: 0.931
[19]; first compound 8 µM
  relative viability: 0.772
[20]; first compound 0.253 µM
  relative viability: 0.779
[20]; first compound 0.8 µM
  relative viability: 0.961
[20]; first compound 2.53 µM
  relative viability: 0.797
[20]; first compound 8 µM
  relative viability: 0.659
